# Reference: patent publication US20220380430A1, “Non-Transgenic Functional Rescue of Neuropeptides” (Worcester Polytechnic Institute, priority 2021, published 2022)
# No end group written: not given here.
# Legend:
# trh-1 mutant worms = assay: Size comparison (body volume) after rescue-by-feeding; format: in vivo, C. elegans; conditions: trh-1 mutant animals fed peptide; N2 set as 100%
# Experimental: All animals were maintained on bacterial lawns of OP50 E. coli, at 20° C., on NGM agar plates until the start of experiments. Mutant or control animals were transferred onto lawns of DH5α E. coli expressing either scramble peptide or the rescue peptide-of-interest on NGM plates containing […] AMP and 1 mM IPTG. Animals were reared on the peptide-expressing lawns for at least 48 hours at 20° C. before assaying for rescue of mutant phenotype at the appropriate developmental stage.
# The body morphology different of trh-1 mutants was compared to wild-type worms by body volume measurements. Wild-type (N2) and trh-1 animals were synchronized by embryonic starvation following alkaline hypochlorite protocols. Ten gravid hermaphrodites from OP50 E. coli plates were picked into 30 μL drops of alkaline hypochlorite solution (20% sodium hypochlorite, 500 mM KOH). Two drops were placed on either side of an unseeded NGM plate, resulting in 20 animals per plate. Plates were then incubated for 24 hours at 20° C. before L1 larval animals washed with 1 mL M9 (22 mM KH2PO4, 42.25 mM Na2HPO4, 85.5 mM NaCl, 1 mM MgSO4) per unseeded NGM plate. Allow L1 worms to settle into pellet before removing M9 supernatant. Repeat washing step 2 more times. Plate worm pellet onto NGM with […] AMP and 1 mM IPTG plates containing 75 μL peptide lawns.
# After at 48 hours at 20° C., animals were recorded using a Basler acA2500-14 uM camera using WormLab software (WormLab 4.1; MBF Bioscience, 2017) for 65 seconds. Worm length, width, and area were calculated within the WormLab software (FIG. 5C-FIG. 5H). As the WormLab worm width metric is an average of cross-sections throughout the length of each worm, this was used to calculate the volume of a worm as a cylinder, with the Volume=π*(0.5*width)^2*length (FIG. 2A-FIG. 2B, FIG. 5A-FIG. 5B).
# Two to four plates were recorded per day for at least three days to generate data sets. Control plates of N2 and trh-1 animals raised on the scramble peptide were grown alongside every rescue feeding. Each “worm track” was considered an n=1. Tracks were excluded if (1) worm tracks less than 10 seconds, or (2) worms were further than two standard deviations from the mean metric. Following tests for normality, comparisons were made using either Mann-Whitney tests for direct comparisons between N2 and trh-1 animals reared on OP50, or Kruskal-Wallis non-parametric ANOVAs and Dunn's multiple comparisons tests for animals raised on peptide feeding strains. Comparisons were made for metrics: length (FIG. 5C-FIG. 5D), width (FIG. 5e-FIG. 5F), area (FIG. 5G-FIG. 5H), and volume (FIG. 2A-FIG. 2B, FIG. 5A-FIG. 5B).
# him-5 and pdf-1 males = assay: Excursion (food-leaving) assay after rescue-by-feeding; format: in vivo, C. elegans; conditions: Probability of Leaving per hour, beyond 35 mm from food
# Excerpt: We quantified the behavioral activity of pdf-1 lof males using a food-leaving behavior as previously described. Individuals were placed on a small food spot, and track patterns were scored at three different time points (2, 6, 24 hrs) (FIG. 4A). “Never left food” indicate the absence of tracks outside the food spot. […] “Major excursion” indicates the presence of tracks past the 1 cm boundary (FIG. 1B, Excursion Assay). The food-leaving behavior was quantified as a measure of mate-searching behavior. In this behavior well-fed males left food in search of mates and the data is represented as a Probability of Leaving (PL) (FIG. 7A).
# The mate searching behavior of pdf-1 mutants was quantified in a food leaving assay. him-5 animals were used as wild-type control to ensure the presence of males. him-5 and pdf-1 animals were fed OP50, scramble peptide, PDF-1A, PDF-1B, or a 1:1 mixture of PDF-1A and PDF-1B cultures. Four to six larval L4 hermaphrodites were passed onto an NGM plate containing […] AMP and 1 mM IPTG with 75 μL of peptide. These worms were grown at 20° C. for about 4 days until the male progeny of the initial L4 worms were young adults. The day prior to the assay, young adult male pdf-1 or him-5 worms were singled onto 60 mm plates containing lawns of either OP50 (NGM plates) or appropriate peptide cultures (NGM containing […] AMP and 1 mM IPTG). To determine the mate searching effects of pdf-1, we performed a food-leaving assay as described previously in Barrios, A., et al., Nat Neurosci 15, 1675-1682 (2012); Lipton, J., et al., The Journal of neuroscience: the official journal of the Society for Neuroscience 24, 7427-7434 (2004); Ryan, D. A. et al. Curr Biol 24, 2509-2517 (2014), with modifications. In this assay, individuals were placed on a small food spot, and track patterns were scored at the indicated times. Assay plates were prepared one day prior to assaying on 100 mm plates with 10 mL of Leaving Assay media (25 mM KPO4 (pH 6.0), 1 mM MgSO4, 1 mM CaCl2), 50 mM NaCl, 2.5 g/L Peptone, 17 g/L Agar). On center of plate, 7 μL of OP50 was added. Plates were lightly covered and stored at room temperature overnight (˜20° C., <40% humidity).
# On the day of the assay, a single male was plated on the assay plate and placed in a dark, 20° C. incubator. At 2, 6, and 24 hours after the worms are plated, plates were scored for male worm tracks. Scored were separated into binned ranges. “Never left food” indicates the absence of tracks outside the food spot. […] “Major excursion” indicates the presence of tracks past the 1 cm boundary. The food leaving behavior was quantified at three different time points (2, 6, and 24 hours). (FIG. 4A, FIG. 7A, Table IV).
# The mate searching defect of pdf-1 was quantified as a Probability of Leaving per hour (PL) (FIG. 4B, FIG. 7B).
# The assay was performed across at least two days per condition, with at least n=50, wherein each assay plate with one male is equal to n=1. In all experiments, the investigators were blinded to genotype. Worm in the >35 mm from the center of food bin were scored as “leavers”. The probability of leaving per hour (Probability of Leaving (PL)) was calculated using an R script developed in Barrios et al., with assistance by (Personal Communications to Barrios, 2020). PL was calculated by the “hazard obtained by fitting an exponential parametric survival model to the censored data using maximum likelihood” (Table IV). The PLh-1 values for all pdf-1 animals fed scramble or peptide rescue were compared to him-5 worms fed scramble using an ANOVA followed by Bonferroni's multiple comparison (FIG. 4B, FIG. 7C).
substance,measurement,setting,value
"NSKLHRGGGRSRTSGSTGSMASHARGSPGLQ-NH2 [SCRAMBLE, scramble control peptide expressed in E. coli DH5α, negative control, reference compound]",Relative Body Volume,trh-1 mutant worms,~120%
same,PL (confidence interval),him-5 and pdf-1 males; him-5 males,"0.07727 (0.06532, 0.09141)"
same,PL (confidence interval),him-5 and pdf-1 males; pdf-1 males,"0.03538 (0.02747, 0.04556)"
